{"source": "patent US9895334B2", "about": "“Treatment of virally induced lesions” (LEO Laboratories Limited, priority 2007, dated 2018)", "test_system": "Cottontail Rabbit Papilloma Virus (CRPV) cutaneous warts", "assay": "Cottontail Rabbit Papilloma Virus (CRPV) model of cutaneous warts: wart surface area after topical gel", "format": "in vivo, Hra(NZW)SPF New Zealand White Rabbits", "excerpt": "Efficacy of Ingenol-3-angelate (PEP005) Topical Gel in a Cottontail Rabbit Papilloma Virus (CRPV) model of cutaneous warts in Hra(NZW)SPF New Zealand White Rabbits.\nCh 25. In: Zak O, Sande M A, editors. Handbook of animal models of infection. New York: Academic Press; 1999. p. 1039-47). Concentrations of the inoculant were selected empirically based on published information for the CRPV model in which cutaneous papillomas (warts) were induced in rabbits (Christensen N D. Cottontail rabbit papillomavirus (CRPV) model system to test antiviral and immunotherapeutic strategies. Antiviral chemistry & chemotherapy 2005; 16(6):355-62). The percutaneous route was selected because this route has been successfully used to establish cutaneous papilloma (wart) formation in rabbits following inoculation with CRPV DNA.\nTen female Hra:(NZW)SPF New Zealand White (NZW) female rabbits were randomly assigned to four dose groups, three rabbits per dose group in Groups 1 through 3 and one rabbit in Group 4.\nFour days before inoculation (DS-4), the backs of the rabbits were shaved over an area encompassing all eight exposure sites using an electric clipper with an appropriate blade. Following clipping, the skin was chemically depilated with Veet® (distributed by Reckitt Benckiser Inc., Parsippany, N.J., USA). The clipped area (approximately 10 cm×20 cm) extended from the shoulders to the hip joints of each rabbit and was approximately 10 cm wide (extending ventrolaterally from the dorsal midline approximately 5 cm on each side). Any re-growth of hair was carefully clipped, as needed throughout the study.\nThree days before inoculation, rabbits were anesthetized with isoflourane/oxygen and the exposure sites on each rabbit were tattooed (Aims Black Pigment #242, AIMS Inc, Piscataway, N.J., USA, lot number F0707A, expiration date 30 Jun. 2008) on either side of each inoculation site. Each exposure site was carefully scarified using a scalpel blade (#60) to create a brush burn-like lesion in order to promote wart growth following inoculation. Rabbits were monitored constantly for signs of regular breathing and comfort while anesthetized and until full recovery from anesthesia. […]\nDaily observations for development of the warts began during week 4 and continued until the first day of test article or placebo administration. The length and width of each cutaneous wart was recorded from the day of first observation to the completion of the study.\nDose administration of PEP005 Topical Gel or placebo began on DS 50. […] The treatment area of each dosing site was determined from the most recent length and width measurements of each wart (mm^2). […]", "data": [{"compound": "C/C=C(/C)C(=O)O[C@H]1C(C)=C[C@]23C(=O)[C@@H](C=C(CO)[C@@H](O)[C@]12O)[C@H]1[C@@H](C[C@H]3C)C1(C)C", "note": "[PEP005, ingenol-3-angelate]", "values": [{"measurement": "Average percentage change in wart area relative to Day 50", "setting": "0.1% PEP005, 3 day treatment, Days 51-57", "result": 2.1, "unit": "%"}, {"measurement": "Average percentage change in wart area relative to Day 50", "setting": "0.1% PEP005, 3 day treatment, Days 56-64", "result": "−4.7", "unit": "%"}, {"measurement": "Average percentage change in wart area relative to Day 50", "setting": "0.1% PEP005, 5 day treatment, Days 51-57", "result": 17.5, "unit": "%"}, {"measurement": "Average percentage change in wart area relative to Day 50", "setting": "0.1% PEP005, 5 day treatment, Days 56-64", "result": 3.9, "unit": "%"}]}]}
